Experimental findings from ChEMBL document CHEMBL3751723, “Discovery of highly potent dual EP(2) and EP(3) agonists with subtype selectivity” (Bioorg Med Chem Lett, 2016) are described below.

In series [1] the target is Prostaglandin E2 receptor EP2 subtype (Homo sapiens, UniProt P43116). The series can be described thus: Agonist activity at human EP2 receptor.
For series [2], the target named is T1, Prostaglandin E2 receptor EP3 subtype (Homo sapiens, UniProt P43115).
T1 sequence (P43115 whole entry): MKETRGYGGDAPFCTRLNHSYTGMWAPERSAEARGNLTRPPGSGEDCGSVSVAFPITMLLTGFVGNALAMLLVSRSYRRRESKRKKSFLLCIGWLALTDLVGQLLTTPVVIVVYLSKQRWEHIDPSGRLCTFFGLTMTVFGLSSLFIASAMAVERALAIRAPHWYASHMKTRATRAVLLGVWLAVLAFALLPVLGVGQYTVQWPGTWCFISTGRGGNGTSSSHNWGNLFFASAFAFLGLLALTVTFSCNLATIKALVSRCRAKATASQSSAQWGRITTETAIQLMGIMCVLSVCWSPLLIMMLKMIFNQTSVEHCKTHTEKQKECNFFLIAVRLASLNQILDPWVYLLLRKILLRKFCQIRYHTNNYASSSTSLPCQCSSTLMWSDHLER
The series can be described thus: Agonist activity at human EP3 receptor.

For series [3], the target named is T2, Prostaglandin E2 receptor EP1 subtype (Homo sapiens, UniProt P34995).
T2 sequence (P34995 whole entry): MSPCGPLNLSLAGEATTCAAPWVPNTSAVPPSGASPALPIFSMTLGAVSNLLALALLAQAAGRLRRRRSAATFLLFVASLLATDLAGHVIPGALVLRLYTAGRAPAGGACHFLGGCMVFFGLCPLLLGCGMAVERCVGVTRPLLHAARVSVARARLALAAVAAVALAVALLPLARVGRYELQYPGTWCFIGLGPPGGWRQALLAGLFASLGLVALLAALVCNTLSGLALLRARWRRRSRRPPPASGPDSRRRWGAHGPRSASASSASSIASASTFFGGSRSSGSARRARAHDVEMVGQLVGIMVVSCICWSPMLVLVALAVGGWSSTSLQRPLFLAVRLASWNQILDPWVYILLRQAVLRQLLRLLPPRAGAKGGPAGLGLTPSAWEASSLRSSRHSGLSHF
Nature of the series: Binding affinity to human EP1 receptor.

In series [4] the target is Prostaglandin E2 receptor EP4 subtype (Homo sapiens, UniProt P35408). The series can be described thus: Agonist activity at human EP4 receptor.
Chain of Prostaglandin E2 receptor EP4 subtype (P35408 whole entry): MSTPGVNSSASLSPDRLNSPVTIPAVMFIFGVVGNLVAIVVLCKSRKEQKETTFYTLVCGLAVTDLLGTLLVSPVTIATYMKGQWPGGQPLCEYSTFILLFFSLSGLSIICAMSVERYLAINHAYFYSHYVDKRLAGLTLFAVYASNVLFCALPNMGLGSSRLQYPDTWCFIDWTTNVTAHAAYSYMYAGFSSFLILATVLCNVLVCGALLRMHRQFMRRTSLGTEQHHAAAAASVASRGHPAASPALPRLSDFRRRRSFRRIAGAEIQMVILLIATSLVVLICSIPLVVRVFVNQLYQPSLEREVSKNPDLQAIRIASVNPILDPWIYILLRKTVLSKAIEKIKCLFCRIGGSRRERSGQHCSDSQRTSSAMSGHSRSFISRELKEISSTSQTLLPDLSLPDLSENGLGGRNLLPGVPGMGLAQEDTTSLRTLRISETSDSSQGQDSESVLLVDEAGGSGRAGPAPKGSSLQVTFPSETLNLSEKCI
Series [5] in a line: Oral bioavailability in rat at 1 mg/kg. Format: ADME, organism-based. The settings on record: in vivo.
Series [6] can be described thus: Clearance in rat at 0.01 mg/kg, iv. The class given is ADME, organism-based. The settings on record: in vivo.
Series [7] is described as follows: Half life in rat at 0.01 mg/kg, iv. The class given is ADME, organism-based. As to conditions: in vivo.
Series [8] is described as follows: AUC in rat at 1 mg/kg, po. The settings on record: in vivo. Format: ADME, organism-based.

Each structure is given as a SMILES string.

Chain of Prostaglandin E2 receptor EP2 subtype (P43116 whole entry): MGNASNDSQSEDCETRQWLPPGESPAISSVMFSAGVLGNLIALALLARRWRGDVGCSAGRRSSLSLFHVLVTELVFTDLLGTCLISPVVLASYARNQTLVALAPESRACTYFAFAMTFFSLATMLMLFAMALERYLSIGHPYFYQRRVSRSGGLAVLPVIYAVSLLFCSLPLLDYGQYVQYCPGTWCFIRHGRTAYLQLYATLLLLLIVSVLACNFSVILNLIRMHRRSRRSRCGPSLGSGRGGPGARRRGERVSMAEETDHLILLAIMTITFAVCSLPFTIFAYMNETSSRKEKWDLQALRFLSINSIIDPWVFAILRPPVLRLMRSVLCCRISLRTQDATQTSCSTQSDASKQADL

Turning to `O=C(O)c1csc(SCCN2C(=O)OC[C@@H]2/C=C/[C@@H](O)C2(CCc3ccccc3)CCC2)n1`, the half-maximal effective concentration (EC50) (commonly the concentration at which the effect is half-maximal) in series [1] came to 160 nM; in series [2], 27 nM; in series [4] it was 465 nM. In series [3], the inhibition constant (Ki) (commonly the equilibrium dissociation constant of an inhibitor or competing ligand from its target) was determined as 802 nM.

Take `CCCCC(C)(C)[C@H](O)/C=C/[C@H]1COC(=O)N1CCSc1nc(C(=O)O)cs1`: the results for the concentration giving a half-maximal response (EC50) in series [1], in series [2] and in series [4] were 7.4 nM, 50 nM and 320 nM, respectively. In series [3], this compound showed an inhibition constant Ki of 120 nM.

`CCCCC(C)(C)[C@H](O)/C=C/[C@H]1CCC(=O)N1CCSc1nc(C(=O)O)cs1`: the EC50 came out at 0.91 nM in series [1], 8.4 nM in series [2] and 4.2 nM in series [4].

With `CC#CCC1([C@H](O)/C=C/[C@H]2COC(=O)N2CCSc2nc(C(=O)O)cs2)CCC1`, the concentration giving a half-maximal response (EC50) in series [1] was determined as 21 nM; in series [2], 18 nM; in series [4], 240 nM. For the same compound, the affinity in series [3] corresponds to a Ki of 89 nM.

On to `CC(C)(CCCCF)[C@H](O)/C=C/[C@H]1COC(=O)N1CCSc1nc(C(=O)O)cs1`, for which the EC50 in series [1] is 5.7 nM; in series [2] it was 4.7 nM; in series [4], 1220 nM. In series [3], this compound registered a Ki of 431 nM.

Consider `O=C(O)c1csc(SCCN2C(=O)OC[C@@H]2/C=C/[C@@H](O)C2(CCCCF)CCC2)n1`, for which the EC50 in series [1] was found to be 2.9 nM; in series [2], 10 nM; in series [4], 195 nM. Besides, the bioavailability (commonly dose-corrected exposure relative to a reference, in per cent) in series [5] stood at 2.5%. The Ki in series [3] was determined as 1080 nM. In series [6], the clearance (usually the rate of elimination divided by the concentration) worked out at 9.5 mL/min/kg. Further, the half-life (commonly the time in which the quantity being followed falls by half) in series [7] was 4.4 h. Further, the AUC (usually concentration integrated over time) in series [8] is 41 ng·h/mL.

With `CCCCC1([C@H](O)/C=C/[C@H]2COC(=O)N2CCSc2nc(C(=O)O)cs2)CCC1`, the EC50 came out at 2.9 nM in series [1], 3.9 nM in series [2] and 73 nM in series [4]. Besides, the Ki in series [3] is 220 nM.

In the case of `CC(C)(C)CCC1([C@H](O)/C=C/[C@H]2COC(=O)N2CCSc2nc(C(=O)O)cs2)CCC1`, the EC50 is 3700 nM in series [1], 6.7 nM in series [2] and 4710 nM in series [4]. Also, the affinity in series [3], expressed as Ki, was 149 nM.

As to `CCCC[C@H](C)C[C@H](O)/C=C/[C@H]1CCC(=O)N1CCSc1nc(C(=O)O)cs1`, the EC50 in series [1] is 0.39 nM; in series [2] it was 310 nM; in series [4], 3 nM.

Regarding `COCCCC1([C@H](O)/C=C/[C@H]2COC(=O)N2CCSc2nc(C(=O)O)cs2)CCC1`, the EC50 came out at 18 nM in series [1], 25 nM in series [2] and 705 nM in series [4]. In addition, the Ki in series [3] is > 10000 nM.

With `O=C(O)c1csc(SCCN2C(=O)OC[C@@H]2/C=C/[C@@H](O)C2(CCC3CCCCC3)CCC2)n1`, the half-maximal effective concentration (EC50) in series [1] was determined as 60 nM; in series [2], 7.4 nM; in series [4], 8390 nM. Further, in series [3], the Ki stood at 1330 nM.

With `CCOCCC1([C@H](O)/C=C/[C@H]2COC(=O)N2CCSc2nc(C(=O)O)cs2)CCC1`, the concentration for a half-maximal effect (EC50) is 29 nM in series [1], 2610 nM in series [2] and 745 nM in series [4]. In addition, the affinity in series [3] corresponds to a Ki of 8420 nM.
